Patent US20250101378A1, “CULTURE MEDIUM AND CULTURE METHOD FOR MAMMARY EPITHELIAL CELLS, AND USE OF MAMMARY EPITHELIAL CELLS” (PRECEDO PHARMACEUTICALS CO., LTD, priority 2022, published 2025)

Legend:
Type in all cases: cell-based, human
breast tumor cells (5 #) = test: In vitro drug sensitivity test, Cell Titer-Glo cell viability; details: 72 hours after drug administration, 1:3 dilution series from 2 times Cmax
Experimental: I. Plating of primary breast cancer cells: using the culture medium of the invention in section (5) of Example 1, breast tumor cells (5 #) were cultured by the method described in section (1) of Example 2, and the cells were inoculated in a 384-well plate at a density of 3000 to 5000 cells/well, and the cells were subjected to adherent culture overnight.
(1) The drug storage plate was prepared by the concentration gradient dilution method: 10 μL of the drug stock solutions to be tested (the concentration of the drug stock solution was prepared at 2 times the maximum plasma concentration Cmax of the drug in the human body) were respectively taken and added to a 0.5 mL EP tube containing 20 μL of DMSO, and then 10 μL was aspirated from the above EP tube into a second 0.5 mL EP tube containing 20 μL of DMSO, that is, the drug was diluted 1:3. The above process was repeated for gradually dilution until 8 or 9 concentrations required for dosing were obtained. Different concentrations of drugs were added to the 384-well drug storage plate. Equal volume of DMSO was added to each well of the solvent control group as a control. In this example, the drugs to be tested are clinically approved anti-tumor drugs, docetaxel (MCE), palbociclib (MCE), dovitinib (MCE), capecitabine (MCE), crizotinib (MCE) and etoposide (MCE).
(2) Using a high-throughput automated workstation (purchased from Perkin Elmer), different concentrations of drugs and solvent controls in the 384-well drug storage plates were added to the 384-well cell culture plates plated with the breast tumor cells. Both the drug groups and the solvent control groups were set up with 3 replicate wells. The volume of drug added to each well was 100 nL.
(3) Cell activity detection: 72 hours after drug administration, Cell Titer-Glo assay kit (manufactured by Promega) was used to detect the chemiluminescence value of the cultured cells after drug administration. The magnitude of the chemiluminescence value reflects the cell viability and the effect of the drug on the cell viability. The prepared Cell Titer-Glo detection solution was added to each well, and a microplate reader was used to detect the chemiluminescence value after mixing.
Graphpad Prism 7.0 software was used to draw graphs and calculate the median inhibition concentration IC50.

[1] = tested on: primary breast cancer cells isolated from breast tumor tissue; test: Screening of additive factors in the culture medium of primary mammary epithelial cells (cell count after 14 days); set-up: key to Level of promoting proliferation: +: compared with the Basal Medium, the culture medium added with the additive(s) has the effect of promoting the proliferation of at least three cases of primary breast cancer cells isolated from breast tumor tissue; ++: the number of “+” indicates the degree of proliferation promotion; ++++: the number of “+” indicates the degree of proliferation promotion; −: the culture medium added with the additive(s) has the effect of inhibiting the proliferation of at least two cases of primary breast cancer cells isolated from breast tumor tissue; the culture medium added with the additive(s) has no significant effect on the proliferation of at least three cases of primary breast cancer cells isolated from breast tumor tissue; details: 14 days of culture; for Level of promoting proliferation: additive added to Basal Medium at the concentration of Table 1, cell count compared with Basal Medium, five breast tumor samples; for promotion of growth of primary breast tumor cells (in words): additive added to Basal Medium, compared with Basal Medium
Experimental: First, a basal culture medium based on WO 2021/088119 was prepared. To a commercially available DMEM/F-12 culture medium, GlutaMAX-I (manufactured by Thermo Fisher Scientific) was added at the concentration specified in the instruction manual (1:100 dilution), human insulin (Sigma) was added at a final concentration of 10 μg/ml, ROCK inhibitor Y27632 (Sigma) was added at a final concentration of 10 μM, penicillin-streptomycin (Thermo Fisher Scientific) was added at a 1:100 dilution, human amphiregulin (manufactured by R&D systems) was added at a final concentration of 20 ng/ml, epidermal growth factor (EGF, manufactured by Peprotech) was added at a final concentration of 10 ng/ml, B27 (Thermo Fisher Scientific) was added at a 1:50 dilution, human neuregulin 1 (Peprotech) was added at a final concentration of 10 nM, fibroblast growth factor 7 (FGF7, R&D systems) was added at a final concentration of 10 ng/ml), and TGFβ1 inhibitor A8301 (manufactured by MCE) was added at a final concentration of 500 nM, to prepare a basal culture medium for primary mammary epithelial cells, hereinafter referred to as “Basal Medium”.
Then, different types of additives (Table 1) were added to the Basal Medium to prepare culture mediums for mammary epithelial cells containing different additives. The culture medium with different components was added to a 24-well plate coated with extracellular matrix gel at a volume of 500 μl/well, and 3 replicates were prepared for each culture medium formulation. The breast cancer cells (1 #) isolated from the breast tumor tissue in Example (1) were inoculated at a cell density of 3×10^4 cells/well in a 24-well culture plate coated with extracellular matrix gel, and cultured at 37° C. and 5% CO2 concentration using different culture medium formulations, respectively. The culture medium was replaced every 3 days after the start of culture. After 14 days of culture, the cells were counted. Basal Medium without addition of any additive shown in Table 1 was used as an experimental control.
The tumor cells isolated from the rest four cases of breast tumor tissue samples were also cultured and counted in the same manner as above.

[2] = tested on: primary breast cancer cells (2 #); test: Optimization of the concentration of additives in the culture medium (cell count on day 14, FIGS. 1A-1G); details: graded concentrations added to Formulations 1-7, 96-well plate, day 14 cell count
Experimental: The following 7 different formulations of culture mediums were further prepared: • Formulation 1: the Basal Medium was added with 1:100-fold diluted MEM-NEAA, 1 mM sodium pyruvate, 50 ng/ml IGF1, 20 ng/ml bFGF, 10 ng/ml TNF-α and 20 ng/ml FGF10; • Formulation 2: the Basal Medium was added with 10 nM β-estradiol, 1 mM sodium pyruvate, 50 ng/ml IGF1, 20 ng/ml bFGF, 10 ng/ml TNF-α and 20 ng/ml of FGF10; • Formulation 3: the Basal Medium was added with 10 nM β-estradiol, 1:100-fold diluted MEM-NEAA, 50 ng/ml IGF1, 20 ng/ml bFGF, and 10 ng/ml TNF-α and 20 ng/ml FGF10; • Formulation 4: the Basal Medium was added with 10 nM β-estradiol, 1:100-fold diluted MEM-NEAA, 1 mM sodium pyruvate, 20 ng/ml bFGF, and 10 ng/ml TNF-α and 20 ng/ml FGF10; • Formulation 5: the Basal Medium was added with 10 nM β-estradiol, 1:100-fold diluted MEM-NEAA, 1 mM sodium pyruvate, 50 ng/ml IGF1, and 10 ng/ml TNF-α and FGF10 at 20 ng/ml; • Formulation 6: the Basal Medium was added with 10 nM β-estradiol, 1:100-fold diluted MEM-NEAA, 1 mM sodium pyruvate, 50 ng/ml IGF1, 20 ng/ml bFGF and 20 ng/ml FGF10; • Formulation 7: the Basal Medium was added with 10 nM β-estradiol, 1:100-fold diluted MEM-NEAA, 1 mM sodium pyruvate, 50 ng/ml IGF1, 20 ng/ml bFGF and 10 ng/ml of TNF-α.
Subsequently, β-estradiol (Sigma) was added to Formulation 1 to prepare culture mediums for human mammary epithelial cells containing β-estradiol at final concentrations of 5 nM, 10 nM, 50 nM, and 100 nM, and each culture medium was added to a 96-well plate coated with Matrigel at a volume of 100 μl/well, with 3 replicates for each concentration. The primary breast cancer cells (2 #) isolated from breast tumor tissue in Example (1) were seeded in a Matrigel-coated 96-well culture plate at a density of 500 cells/well and cultured in Formulation 1 containing different concentrations of β-estradiol at 37° C. and 5% CO2. The culture medium was replaced every 3 days after the start of culture. On the 14th day of culture, the cells were counted. Formulation 1 was used as an experimental control, i.e., the content of β-estradiol was 0 nM.
Non-essential amino acids (MEM-NEAA) additive (Thermo Fisher) was added to Formulation 2 at a dilution ratio of 1:200, 1:100, 1:50, and 1:20 to prepare culture mediums for human mammary epithelial cells containing different concentrations of non-essential amino acids. The culture mediums of different formulations were added to a 96-well plate coated with Matrigel at a volume of 100 μl/well, with 3 replicates for each concentration. Primary cells were cultured and counted in the same manner as above. As an experimental control, Formulation 2 was used, i.e., the content of non-essential amino acids was 0.
Similarly, sodium pyruvate (Thermo Fisher) was added to Formulation 3 to prepare culture mediums for human mammary epithelial cells containing sodium pyruvate at final concentrations of 0.5 mM, 1 mM, 2 mM, and 4 mM. […] Primary cells were cultured and counted in the same manner as above. […]
Then, insulin-like growth factor 1 (IGF1, manufactured by R&D) was added to formulation 4 to prepare culture mediums for human mammary epithelial cells containing IGF1 at final concentrations of 10 ng/ml, 20 ng/ml, 50 ng/ml, 100 ng/ml, and 200 ng/ml, and the culture mediums containing different concentrations of IGF1 were added to a 96-well plate coated with Matrigel at a volume of 100 μl/well, with 3 replicates for each concentration. Primary cells were cultured and counted in the same manner as above. […]

| Molecule | sensitivity of breast cancer cells to drug (in words) (breast tumor cells (5 #)) | Level of promoting proliferation [1] | effect on in vitro proliferation of primary breast cancer cells (in words) [2] | promotion of growth of primary breast tumor cells (in words) [1] |
| --- | --- | --- | --- | --- |
| CCCCCOC(=O)Nc1nc(=O)n([C@@H]2O[C@H](C)[C@@H](O)[C@H]2O)cc1F [capecitabine] | less sensitive | – | – | – |
| C[C@@H](Oc1cc(-c2cnn(C3CCNCC3)c2)cnc1N)c1c(Cl)ccc(F)c1Cl [crizotinib] | less sensitive | – | – | – |
| CC(=O)O[C@@]12CO[C@@H]1C[C@H](O)[C@@]1(C)C(=O)[C@H](O)C3=C(C)[C@@H](OC(=O)[C@H](O)[C@@H](NC(=O)OC(C)(C)C)c4ccccc4)C[C@@](O)([C@@H](OC(=O)c4ccccc4)[C@H]21)C3(C)C [docetaxel] | more sensitive | – | – | – |
| COc1cc([C@@H]2c3cc4c(cc3[C@@H](O[C@@H]3O[C@@H]5CO[C@@H](C)O[C@H]5[C@H](O)[C@H]3O)[C@H]3COC(=O)[C@H]23)OCO4)cc(OC)c1O [etoposide] | more sensitive | – | – | – |
| CC(=O)C(=O)[O-].[Na+] [sodium pyruvate] | – | ∘ | – | – |
| C[C@]12CC[C@@H]3c4ccc(O)cc4CC[C@H]3[C@@H]1CC[C@@H]2O [β-estradiol] | – | ∘ | obvious proliferative effects | – |
| basic fibroblast growth factor | – | ++ | obvious proliferative effects | stronger |
| insulin-like growth factor 1 | – | + | obvious proliferative effects | promote the growth |
| tumor necrosis factor α | – | ++ | obvious proliferative effects | stronger |
| fibroblast growth factor 10 (protein, UniProt O15520 38-208, looked up, growth factor used as culture medium additive) Fibroblast growth factor 10: QALGQDMVSPEATNSSSSSFSSPSSAGRHVRSYNHLQGDVRWRKLFSFTKYFLKIEKNGKVSGTKKENCPYSILEITSVEIGVVAVKAINSNYYLAMNKKGKLYGSKEFNNDCKLKERIEENGYNTYASFNWQHNGRQMYVALNGKGAPRRGQKTRRKNTSAHFLPMVVHS | – | + | dose-dependent pro-proliferation effect | promote the growth |
